# Laboratory results: patent US20240424048A1, “CHINESE MEDICINE FORMULA FOR TREATING TUMORS AND/OR PULMONARY NODULES AND PREPARATION METHOD THEREOF” (priority 2023, published 2024)
# Like-named read-outs stand apart in the source and are kept apart here. Marks after values point to notes of the source that are not given here.
# Assays:
# [1] = system: Lewis lung cancer lung metastasis; assay type: in vivo, mouse; details: 15 mg/kg; for Number of pulmonary nodules: after 21 days of administration
# Description: (§1) a first batch of experiments: C57BL/6 mice were randomly divided into 6 groups according to body weight. • Saline control group administered with physiological saline 20 ml/kg • Solvent control group administered with 35-degree white wine 20 ml/kg • Cyclophosphamide administered with 0.075% 15 mg/20 group cyclophosphamide ml/kg • Low dose group of anti-administered with 20% anti-lung cancer 4 ml/20 lung cancer vinum ml/kg • Mid dose group of anti-administered with 40% anti-lung cancer 8 ml/20 lung cancer vinum ml/kg • High dose group of anti-Administered with 80% anti-lung 16 ml/20 m lung cancer vinum cancer vinum l/kg • a second batch of experiments: randomly divided into 6 groups based on body weight: • Saline control group administered with physiological saline 20 ml/kg • Solvent control group administered with 35-degree white wine 20 ml/kg • Cyclophosphamide administered with 0.075% 15 mg/20 group cyclophosphamide ml/kg • Low dose group of anti-administered with 10% anti-lung cancer 2 ml/20 lung cancer vinum ml/kg • Mid dose group of anti-administered with 20% anti-lung cancer 4 ml/20 lung cancer vinum ml/kg • High dose group of anti-administered with 40% anti-lung cancer 8 ml/20 lung cancer vinum ml/kg
# C57BL/6 mice were adaptively fed for 3-5 days, and an in vivo transplant tumor model was prepared using anti-tumor drug experimental methods. Each mouse was subcutaneously injected with 0.2 ml of cell suspension with a concentration of 2×10^7 cells/mL. […]
# The first batch of experiments: measure a tumor volume and plot a tumor growth curve once on the 8th, 10th, 12th, and 14th day of administration; after 14 days of administration, 10 mice in each group were weighed and euthanized. Tumors, spleens, lungs, and thymus were removed, weighed, tumor inhibition rate and organ coefficient were calculated; after 21 days of administration, 6 mice in each group were perfused with physiological saline and their lungs were removed, fixed with Bouin solution and the number of metastatic lung nodules was examined under a microscope. […]
# Lewis lung cancer = assay type: in vivo, mouse; details: 15 mg/kg
# Description: C57BL/6 mice, 6-8 weeks old, weighing 19-21 g, male, provided by Liaoning Changsheng Biotechnology Co., Ltd., certificate number: SYSK (Ji) 2018-0001. Two batches of experiments all used male C57BL/6 mice, which were adaptively raised in a laboratory for 3-5 days before the experiment.
# Mouse Lewis lung cancer cells were provided by Jilin Cancer Research Institute and passaged and preserved in the laboratory. Lewis lung cancer cells were resuscitated, cells were expanded to 2-3×10^8 cells/mL, cells were collected, and cell density was adjusted to 2×10^7 cells/mL.
# as §1
# (§2) C57BL/6 mice were adaptively fed for 3-5 days, and an in vivo transplant tumor model was prepared using anti-tumor drug experimental methods. Each mouse was subcutaneously injected with 0.2 ml of cell suspension with a concentration of 2×10^7 cells/mL. On the second day, they were randomly divided into 6 groups based on body weight, with 20 mice in each group. Each group started administration the next day after tumor inoculation, and the drugs in each group were freshly prepared and administered at a dose of […], twice a day for 14, 16, or 21 consecutive days.
# (§3) The first batch of experiments: measure a tumor volume and plot a tumor growth curve once on the 8th, 10th, 12th, and 14th day of administration; after 14 days of administration, 10 mice in each group were weighed and euthanized. Tumors, spleens, lungs, and thymus were removed, weighed, tumor inhibition rate and organ coefficient were calculated; after 21 days of administration, 6 mice in each group were perfused with physiological saline and their lungs were removed, fixed with Bouin solution and the number of metastatic lung nodules was examined under a microscope.
# (§4) The second batch of experiments: measure the tumor volume and plot the tumor growth curve once on the 8th, 10th, 12th, 14th, and 16th day of administration; after 16 days of administration, 12 mice in each group were weighed and euthanized. Tumors, spleens, lungs, and thymus were removed, weighed, and the tumor inhibition rate and organ coefficient were calculated; after 21 days of administration, 6 mice in each group were perfused with physiological saline and their lungs were removed, fixed with Bouis solution and the number of metastatic lung nodules was examined under the microscope.
# [2] = 15 mg/kg
# Description: as §1, §2, §3, §4
# [3] = first batch, after 14 days of administration
# [4] = second batch, after 16 days of administration
structure (smiles),measurement,setting,value
O=P1(N(CCCl)CCCl)NCCCO1 (centres unmarked) [Cyclophosphamide],Effect on lung metastasis in Lewis lung cancer mice,[1]; continuous administration for 21 days,can inhibit lung metastasis
same,Number of pulmonary nodules,[1]; first batch,6.17 ± 1.94
same,Number of pulmonary nodules,[1]; second batch,6.67 ± 1.21
same,Volume of tumor,"Lewis lung cancer; first batch, 8 days",61.08##** mm^3
same,Volume of tumor,"Lewis lung cancer; first batch, 10 days",244.09##** mm^3
same,Volume of tumor,"Lewis lung cancer; first batch, 12 days",817.83##** mm^3
same,Volume of tumor,"Lewis lung cancer; first batch, 14 days",953.67##** mm^3
same,Tumor inhibition rate,Lewis lung cancer; [3],63.52%
same,Weight of tumor,Lewis lung cancer; [3],0.59 ± 0.26 g
same,Volume of tumor,"Lewis lung cancer; second batch, 8 days",111.30##** mm^3
same,Volume of tumor,"Lewis lung cancer; second batch, 10 days",165.52##** mm^3
same,Volume of tumor,"Lewis lung cancer; second batch, 12 days",278.25##** mm^3
same,Volume of tumor,"Lewis lung cancer; second batch, 14 days",371.57##** mm^3
same,Volume of tumor,"Lewis lung cancer; second batch, 16 days",461.54##** mm^3
same,Tumor inhibition rate,Lewis lung cancer; [4],67.43%
same,Weight of tumor,Lewis lung cancer; [4],0.56 ± 0.22 g
same,Tumor inhibition rate,"Lewis lung cancer; summary of both batches, by gavage",65.48%
same,"Toxicity (body weight, thymic coefficient, spleen coefficient of mice)",[2],significant toxic effects
same,Weight before administration,"[2]; first batch, Table 3",20.30 ± 1.33 g
same,Lung coefficient,[2]; [3],7.26 ± 0.85
same,Spleen coefficient,[2]; [3],3.40 ± 1.02
same,Thymic coefficient,[2]; [3],1.11 ± 0.35
same,Weight after administration,[2]; [3],20.30 ± 1.33 g
same,Weight after administration,"[2]; first batch, after 21 days of administration",21.81 ± 1.37 g
same,Weight after administration,[2]; [4],21.58 ± 0.79 g
same,Lung coefficient,[2]; [4],6.66 ± 0.72
same,Spleen coefficient,[2]; [4],3.62 ± 0.86
same,Thymic coefficient,[2]; [4],0.47 ± 0.16
same,Weight after administration,"[2]; second batch, after 21 days of administration",22.02 ± 1.71 g
